For data set [1] the following is noted: oral doses ranging from 5 to 180 mg; cited from earlier work.
The test system of data set [2] is EGFRex20ins mutation positive locally advanced or metastatic NSCLC. Also on record: method as in doi:10.1016/j.annonc.2023.10.586. The following applies: mobocertinib versus chemotherapy, first-line; cited from earlier work.
Data set [3] is described as follows: Period 1: excretion in urine and feces after IV [14C]-mobocertinib. The format is in vivo, human. The following applies: Period 1, IV infusion 50 µg (~2 µCi) [14C]-mobocertinib. The procedure: On Day 1 of Period 1, following an overnight fast of at least 10 h, participants received a single 160 mg dose of non-radiolabeled mobocertinib as capsules. At 3.75 h post oral dosing (i.e., 15 min before the median oral tmax of ~ 4 h), participants received a nominal dose of 50 µg (~ 2 µCi) [^14C]-mobocertinib as a 15-minute IV infusion. However, due to nonspecific binding of [^14C]-mobocertinib to the dosing syringe and tubing, actual doses administered ranged from 36.8 to 38.7 µg (1.47 to 1.55 µCi). Participants were required to stay in the clinic from Day − 1 through at least the 96-hour blood draw (Day 5) or until a discharge criterion was met (i.e., ≥ 80% of the total administered radioactive dose was recovered in urine and fecal samples or excretion of radioactivity in urine and feces combined had declined to ≤ 1% of the total administered dose per day for ≥ 2 consecutive intervals), up to a maximum of 7 days postdose (Day 8). Blood samples for the measurement of plasma mobocertinib, AP32960, and AP32914 concentrations were collected predose and at 0.5, 1, 2, 3, 4, 5, 6, 8, 12, 24, 36, 48, 72, and 96 h after oral administration. Additional blood samples to determine [^14C]-total radioactivity, [^14C]-mobocertinib, [^14C]-AP32960, and [^14C]-AP32914 in plasma were collected at 3.75 h after oral dosing (i.e., predose for [^14C] assessments), at the end of the IV infusion, and at 10, 20, and 30 min, and 1, 2, 4, 8, 20, 32, 44, 68, and 92 h after the end of infusion. […]
Plasma, whole blood, and urine samples were assayed for mobocertinib, AP32960, and AP32914 concentrations using liquid chromatography-tandem mass spectrometry (Q2 Solutions, Ithaca, New York, USA). […] Urine and fecal samples were assayed for total radioactivity following the IV dose of [^14C]-mobocertinib in Period 1, and whole blood, plasma, urine, and fecal samples were assayed for total radioactivity following the oral dose of [^14C]-mobocertinib in Period 2 using liquid scintillation counting (LSC; Celerion, Lincoln, Nebraska, USA; LLOQs: Period 1 urine: 0.115–0.118 ng eq/g, feces: 0.720–0.759 ng eq/g; Period 2 whole blood: 87.3–112 ng eq/g, plasma: 116–132 ng eq/mL, urine: 37.8–46.8 ng eq/g, feces: 110–336 ng eq/g across participants). Urine and fecal samples collected in Period 1 that had total radioactivity concentration equivalents below the LLOQ of the Celerion LSC assay were sent to Pharmaron for measurement by AMS (LLOQ: urine: 0.0000253–0.00111 ng eq/g; feces: 0.000404–0.0278 ng eq/g across participants). […]

Take `C=CC(=O)Nc1cc(Nc2ncc(C(=O)OC(C)C)c(-c3cn(C)c4ccccc34)n2)c(OC)cc1N(C)CCN(C)C` [Mobocertinib]: in data set [1], the “median time to maximum observed concentration (tmax)” value is 4 h. For the same compound, the “primary endpoint of phase 3 study” value in data set [2] was “not met”.
In the case of [^14C]-mobocertinib, in data set [3], the “administered radioactive dose excreted in urine as analyte” value stood at 1.5%, the “dose recovered as total radioactivity in feces overall” value is listed as 69.9%, the “dose recovered as total radioactivity in urine overall” value is 4.7% and the “radioactive dose excreted in feces as analyte” value worked out at 2.5%.
